# Read-outs that look alike come from different tables or passages of the source.
# Tests used:
# Assay in all cases: Minimum growth inhibitory concentration, method of the Japan Society of Chemotherapy
# Assay type in all cases: cell-based
# [1] = tested on: Staphylococcus aureus SR3637; conditions: bacteria B: Staphylococcus aureus SR3637; bacteria ×10⁶/ml
# Text: (§1) The results are shown in Table 1. • (A) : Staphylococcus aureus SR3131 • (B) : Staphylococcus aureus SR3637 • (C) : Staphylococcus aureus SR57690FLX-R* • (D) : Streptococcus pneumoniae • (E) : Streptococcus faecalis SR58180FLX-R* • (F) : Escherichia coli EC-7437 • (G) : Escherichia coli SR5038 OFLX-R* * : ofloxacin resistant bacteria
# [2] = tested on: Escherichia coli EC-7437; conditions: EC7437; bacteria F: Escherichia coli EC-7437; bacteria ×10⁶/ml
# Text: as §1
# [3] = tested on: Streptococcus faecalis SR58180FLX-R; conditions: Enterococcus faecalis, SR58180FLXR, read-out: Minimum Inhibitory Concentration
# Text: as §1
# [4] = tested on: Escherichia coli SR5038 OFLX-R; conditions: SR5038OFLXR, read-out: Minimum Inhibitory Concentration
# Text: as §1
# [5] = tested on: Staphylococcus aureus SR3131; conditions: bacteria A: Staphylococcus aureus SR3131; bacteria ×10⁶/ml
# Text: as §1
# [6] = tested on: Staphylococcus aureus SR57690FLX-R; conditions: SR57690FLXR, read-out: Minimum Inhibitory Concentration
# Text: as §1
# [7] = tested on: Streptococcus pneumoniae; conditions: bacteria D: Streptococcus pneumoniae; bacteria ×10⁶/ml
# Text: as §1
SMILES,MIC [1] [µg/mL],MIC [2] [µg/mL],MIC [3] [µg/mL],MIC ([4]; Escherichia coli) [µg/mL],MIC [5] [µg/mL],MIC [6] [µg/mL],MIC [7] [µg/mL],"MIC ([4]; bacteria G: Escherichia coli SR5038 OFLX-R, ofloxacin resistant, bacteria ×10⁶/ml) [µg/mL]"
"C=C1CN(c2c(F)cc3c(=O)c(C(=O)O)cn(C4CC4)c3c2F)C[C@H]1NC [Compound 1, 7-((-)-(S)-3-Methylamino-4-methylenepyrrolidine)-1-cyclopropyl-6,8-difluoro-1,4-dihydro-4-oxo-3-quinolinecarboxylic acid]",0.05,< 0.003,6.3,12.5,0.05,6.3,0.2,–
C=C1CN(c2c(F)cc3c(=O)c(C(=O)O)cn(C4CC4)c3c2F)CC1NC (racemic) [Racemate of the compound 1],0.1,0.006,12.5,12.5,0.1,6.3,0.4,–
CC1COc2c(N3CCN(C)CC3)c(F)cc3c(=O)c(C(=O)O)cn1c23 (stereo not drawn) [Ofloxacin],0.4,< 0.02,100,–,0.4,50,1.6,50
